{"source": "the supplement of paper PMC10307832", "assay_in_all_cases": "relative viability (nuclei count vs DMSO), 5 days (fraction); higher = more cells survive", "key": {"SW 900": {"system": "SW 900", "in_short": "(§1)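 Nuclei were stained with Hoechst during a one-step fixation (final 0.05% Triton X-100, 1% formaldehyde, 1 ug/ml Hoechst) carried out 5 days after dosing, then counted on 4× images. The cells, lung cancer lines in 1536-well plates, had been dosed by pin tool the day after seeding with one drug alone or a fixed anchor-drug dose plus five library-drug doses (not always all listed) in √10 steps. Relative viability is the nuclei count in treated wells divided by that in vehicle wells, and each value is the median of duplicate plates.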"}, "NCI-H1437": {"system": "NCI-H1437", "in_short": "as §1"}, "NCI-H1395": {"system": "NCI-H1395", "in_short": "as §1"}, "LU99A": {"system": "LU99A", "in_short": "as §1"}, "NCI-H2126": {"system": "NCI-H2126", "in_short": "as §1"}, "NCI-H1755": {"system": "NCI-H1755", "in_short": "as §1"}, "NCI-H358": {"system": "NCI-H358", "in_short": "as §1"}, "BEN": {"system": "BEN", "in_short": "as §1"}, "HCC-15": {"system": "HCC-15", "in_short": "as §1"}, "SW 1573": {"system": "SW 1573", "in_short": "as §1"}, "EMC-BAC-2": {"system": "EMC-BAC-2", "in_short": "as §1"}, "NCI-H1734": {"system": "NCI-H1734", "in_short": "as §1"}, "NCI-H650": {"system": "NCI-H650", "in_short": "as §1"}, "NCI-H3122": {"system": "NCI-H3122", "in_short": "as §1"}, "NCI-H1563": {"system": "NCI-H1563", "in_short": "as §1"}, "NCI-H2023": {"system": "NCI-H2023", "in_short": "as §1"}, "NCI-H727": {"system": "NCI-H727", "in_short": "as §1"}, "NCI-H1915": {"system": "NCI-H1915", "in_short": "as §1"}, "HOP-62": {"system": "HOP-62", "in_short": "as §1"}, "LC-2-ad": {"system": "LC-2-ad", "in_short": "as §1"}, "NCI-H2170": {"system": "NCI-H2170", "in_short": "as §1"}}, "data": [{"compound": "CN1CCN(CCOc2cc(OC3CCOCC3)c3c(Nc4c(Cl)ccc5c4OCO5)ncnc3c2)CC1", "note": "[Saracatinib] + Cc1nc(Nc2ncc(C(=O)Nc3c(C)cccc3Cl)s2)cc(N2CCN(CCO)CC2)n1 [Dasatinib] (partner 0.075 µM)", "values": [{"measurement": "relative viability", "setting": "SW 900; first compound 0.02 µM", "value": 0.559}, {"measurement": "relative viability", "setting": "SW 900; first compound 0.2 µM", "value": 0.549}, {"measurement": "relative viability", "setting": "SW 900; first compound 0.6325 µM", "value": 0.548}, {"measurement": "relative viability", "setting": "SW 900; first compound 2 µM", "value": 0.549}, {"measurement": "relative viability", "setting": "NCI-H1437; first compound 0.02 µM", "value": 0.494}, {"measurement": "relative viability", "setting": "NCI-H1437; first compound 0.2 µM", "value": 0.283}, {"measurement": "relative viability", "setting": "NCI-H1437; first compound 0.6325 µM", "value": 0.389}, {"measurement": "relative viability", "setting": "NCI-H1437; first compound 2 µM", "value": 0.289}, {"measurement": "relative viability", "setting": "NCI-H1395; first compound 0.02 µM", "value": 0.394}, {"measurement": "relative viability", "setting": "NCI-H1395; first compound 0.2 µM", "value": 0.418}, {"measurement": "relative viability", "setting": "NCI-H1395; first compound 0.6325 µM", "value": 0.411}, {"measurement": "relative viability", "setting": "NCI-H1395; first compound 2 µM", "value": 0.402}, {"measurement": "relative viability", "setting": "LU99A; first compound 0.02 µM", "value": 0.567}, {"measurement": "relative viability", "setting": "LU99A; first compound 0.2 µM", "value": 0.578}, {"measurement": "relative viability", "setting": "LU99A; first compound 0.6325 µM", "value": 0.652}, {"measurement": "relative viability", "setting": "LU99A; first compound 2 µM", "value": 0.558}, {"measurement": "relative viability", "setting": "NCI-H2126; first compound 0.02 µM", "value": 0.569}, {"measurement": "relative viability", "setting": "NCI-H2126; first compound 0.2 µM", "value": 0.511}, {"measurement": "relative viability", "setting": "NCI-H2126; first compound 0.6325 µM", "value": 0.532}, {"measurement": "relative viability", "setting": "NCI-H2126; first compound 2 µM", "value": 0.398}, {"measurement": "relative viability", "setting": "NCI-H1755; first compound 0.02 µM", "value": 0.422}, {"measurement": "relative viability", "setting": "NCI-H1755; first compound 0.2 µM", "value": 0.318}, {"measurement": "relative viability", "setting": "NCI-H1755; first compound 0.6325 µM", "value": 0.439}, {"measurement": "relative viability", "setting": "NCI-H1755; first compound 2 µM", "value": 0.404}, {"measurement": "relative viability", "setting": "NCI-H358; first compound 0.02 µM", "value": 0.168}, {"measurement": "relative viability", "setting": "NCI-H358; first compound 0.2 µM", "value": 0.16}, {"measurement": "relative viability", "setting": "NCI-H358; first compound 0.6325 µM", "value": 0.18}, {"measurement": "relative viability", "setting": "NCI-H358; first compound 2 µM", "value": 0.103}, {"measurement": "relative viability", "setting": "BEN; first compound 0.02 µM", "value": 0.329}, {"measurement": "relative viability", "setting": "BEN; first compound 0.6325 µM", "value": 0.373}, {"measurement": "relative viability", "setting": "BEN; first compound 2 µM", "value": 0.418}, {"measurement": "relative viability", "setting": "HCC-15; first compound 0.02 µM", "value": 0.595}, {"measurement": "relative viability", "setting": "HCC-15; first compound 0.2 µM", "value": 0.524}, {"measurement": "relative viability", "setting": "HCC-15; first compound 0.6325 µM", "value": 0.605}, {"measurement": "relative viability", "setting": "HCC-15; first compound 2 µM", "value": 0.561}, {"measurement": "relative viability", "setting": "SW 1573; first compound 0.02 µM", "value": 0.463}, {"measurement": "relative viability", "setting": "SW 1573; first compound 0.2 µM", "value": 0.454}, {"measurement": "relative viability", "setting": "SW 1573; first compound 0.6325 µM", "value": 0.489}, {"measurement": "relative viability", "setting": "SW 1573; first compound 2 µM", "value": 0.336}, {"measurement": "relative viability", "setting": "EMC-BAC-2; first compound 0.02 µM", "value": 0.321}, {"measurement": "relative viability", "setting": "EMC-BAC-2; first compound 0.2 µM", "value": 0.286}, {"measurement": "relative viability", "setting": "EMC-BAC-2; first compound 0.6325 µM", "value": 0.324}, {"measurement": "relative viability", "setting": "EMC-BAC-2; first compound 2 µM", "value": 0.294}, {"measurement": "relative viability", "setting": "NCI-H1734; first compound 0.02 µM", "value": 0.455}, {"measurement": "relative viability", "setting": "NCI-H1734; first compound 0.6325 µM", "value": 0.49}, {"measurement": "relative viability", "setting": "NCI-H1734; first compound 2 µM", "value": 0.469}, {"measurement": "relative viability", "setting": "NCI-H650; first compound 0.02 µM", "value": 0.491}, {"measurement": "relative viability", "setting": "NCI-H650; first compound 0.2 µM", "value": 0.416}, {"measurement": "relative viability", "setting": "NCI-H650; first compound 0.6325 µM", "value": 0.477}, {"measurement": "relative viability", "setting": "NCI-H650; first compound 2 µM", "value": 0.429}, {"measurement": "relative viability", "setting": "NCI-H3122; first compound 0.02 µM", "value": 0.879}, {"measurement": "relative viability", "setting": "NCI-H3122; first compound 0.2 µM", "value": 0.666}, {"measurement": "relative viability", "setting": "NCI-H3122; first compound 0.6325 µM", "value": 0.562}, {"measurement": "relative viability", "setting": "NCI-H3122; first compound 2 µM", "value": 0.655}, {"measurement": "relative viability", "setting": "NCI-H1563; first compound 0.02 µM", "value": 0.463}, {"measurement": "relative viability", "setting": "NCI-H1563; first compound 0.2 µM", "value": 0.39}, {"measurement": "relative viability", "setting": "NCI-H1563; first compound 0.6325 µM", "value": 0.437}, {"measurement": "relative viability", "setting": "NCI-H1563; first compound 2 µM", "value": 0.397}, {"measurement": "relative viability", "setting": "NCI-H2023; first compound 0.02 µM", "value": 0.664}, {"measurement": "relative viability", "setting": "NCI-H2023; first compound 0.2 µM", "value": 0.651}, {"measurement": "relative viability", "setting": "NCI-H2023; first compound 0.6325 µM", "value": 0.608}, {"measurement": "relative viability", "setting": "NCI-H2023; first compound 2 µM", "value": 0.553}, {"measurement": "relative viability", "setting": "NCI-H727; first compound 0.02 µM", "value": 0.396}, {"measurement": "relative viability", "setting": "NCI-H727; first compound 0.2 µM", "value": 0.377}, {"measurement": "relative viability", "setting": "NCI-H727; first compound 0.6325 µM", "value": 0.564}, {"measurement": "relative viability", "setting": "NCI-H727; first compound 2 µM", "value": 0.356}, {"measurement": "relative viability", "setting": "NCI-H1915; first compound 0.02 µM", "value": 0.308}, {"measurement": "relative viability", "setting": "NCI-H1915; first compound 0.2 µM", "value": 0.292}, {"measurement": "relative viability", "setting": "NCI-H1915; first compound 0.6325 µM", "value": 0.282}, {"measurement": "relative viability", "setting": "NCI-H1915; first compound 2 µM", "value": 0.322}, {"measurement": "relative viability", "setting": "HOP-62; first compound 0.02 µM", "value": 0.757}, {"measurement": "relative viability", "setting": "HOP-62; first compound 0.2 µM", "value": 0.663}, {"measurement": "relative viability", "setting": "HOP-62; first compound 0.6325 µM", "value": 0.766}, {"measurement": "relative viability", "setting": "HOP-62; first compound 2 µM", "value": 0.636}, {"measurement": "relative viability", "setting": "LC-2-ad; first compound 0.02 µM", "value": 0.611}, {"measurement": "relative viability", "setting": "LC-2-ad; first compound 0.2 µM", "value": 0.571}, {"measurement": "relative viability", "setting": "LC-2-ad; first compound 0.6325 µM", "value": 0.794}, {"measurement": "relative viability", "setting": "LC-2-ad; first compound 2 µM", "value": 0.596}, {"measurement": "relative viability", "setting": "NCI-H2170; first compound 0.02 µM", "value": 0.766}, {"measurement": "relative viability", "setting": "NCI-H2170; first compound 0.2 µM", "value": 0.486}, {"measurement": "relative viability", "setting": "NCI-H2170; first compound 0.6325 µM", "value": 0.548}, {"measurement": "relative viability", "setting": "NCI-H2170; first compound 2 µM", "value": 0.265}]}]}
